# In patent publication US7786108B2, “Compounds and method for treating dyslipidemia” (Eli Lilly and Company, priority 2004, dated 2010):
# Tested on: not given
# Assay: not given
# Details: not given
row,Structure (SMILES),melting point
1,"COC(=O)c1cccc(CN2CCC[C@H](N(Cc3cc(C(F)(F)F)cc(C(F)(F)F)c3)c3nnn(C)n3)c3cc(C)c(C(F)(F)F)cc32)c1 [Example 90, (S)-3-{5-[(3,5-Bis-trifluoromethyl-benzyl)-(2-methyl-2H-tetrazol-5-yl)-amino]-7-methyl-8-trifluoromethyl-2,3,4,5-tetrahydro-benzo[b]azepin-1-ylmethyl}-benzoic acid methyl ester]",62 to 65 °C (dec.)
2,"COC(=O)c1ccc(CN2CCC[C@H](N(Cc3cc(C(F)(F)F)cc(C(F)(F)F)c3)c3nnn(C)n3)c3cc(C)c(C(F)(F)F)cc32)cc1 [Example 88, (S)-4-{5-[(3,5-Bis-trifluoromethyl-benzyl)-(2-methyl-2H-tetrazol-5-yl)-amino]-7-methyl-8-trifluoromethyl-2,3,4,5-tetrahydro-benzo[b]azepin-1-ylmethyl}-benzoic acid methyl ester]",71 to 74 °C (dec.)
3,"Cc1cc2c(cc1C(F)(F)F)N(c1ccc(C(=O)O)cc1)CCC[C@@H]2N(Cc1cc(C(F)(F)F)cc(C(F)(F)F)c1)c1nnn(C)n1 [Example 92, (S)-4-{5-[(3,5-Bis-trifluoromethyl-benzyl)-(2-methyl-2H-tetrazol-5-yl)-amino]-7-methyl-8-trifluoromethyl-2,3,4,5-tetrahydro-benzo[b]azepin-1-yl}-benzoic acid]",101 to 105 °C
4,"Cc1cc2c(cc1C(F)(F)F)N(Cc1ccc(C(=O)O)cc1)CCC[C@@H]2N(Cc1cc(C(F)(F)F)cc(C(F)(F)F)c1)c1nnn(C)n1 [Example 89, (S)-4-{5-[(3,5-Bis-trifluoromethyl-benzyl)-(2-methyl-2H-tetrazol-5-yl)-amino]-7-methyl-8-trifluoromethyl-2,3,4,5-tetrahydro-benzo[b]azepin-1-ylmethyl}-benzoic acid]",95 to 98 °C
5,"Cc1cc2c(cc1C(F)(F)F)N(Cc1cccc(C(=O)O)c1)CCC[C@@H]2N(Cc1cc(C(F)(F)F)cc(C(F)(F)F)c1)c1nnn(C)n1 [Example 91, (S)-3-{5-[(3,5-Bis-trifluoromethyl-benzyl)-(2-methyl-2H-tetrazol-5-yl)-amino]-7-methyl-8-trifluoromethyl-2,3,4,5-tetrahydro-benzo[b]azepin-1-ylmethyl}-benzoic acid]",83 to 86 °C

# Tested on: transgenic mice that express both human CETP and human apolipoprotein A-1
# Assay: In vivo assay of plasma lipids: elevation of HDL cholesterol
# Details: Mus musculus; single oral dose 30 mg/kg; HDL cholesterol in serum at 8 hr after administration; relative to a control; read-out: % HDL cholesterol increase
# Excerpt: Additional serum lipids can be analyzed by enzymatic methods.
row,Structure (SMILES),change in vivo at 30 mg/kg [%]
1,"Cc1c2c(cc3c1N(CC1CCCC1)CCC[C@@H]3N(Cc1cc(C(F)(F)F)cc(C(F)(F)F)c1)c1nnn(C)n1)COC2 [Example 170, (S)-(3,5-Bis-trifluoromethyl-benzyl)-(5-cyclopentylmethyl-4-methyl-3,5,6,7,8,9-hexahydro-1H-2-oxa-5-aza-cyclohepta[f]inden-9-yl)-(2-methyl-2H-tetrazol-5-yl)-amine]",95
2,"CC(C)OC(=O)N1CCCC(N(Cc2cc(C(F)(F)F)cc(C(F)(F)F)c2)c2nnn(C)n2)c2cc3c(cc21)CCC3 (racemic) [Example 50, (+/−)-9-[(3,5-Bis-trifluoromethyl-benzyl)-(2-methyl-2H-tetrazol-5-yl)-amino]-2,3,6,7,8,9-hexahydro-1H-5-aza-cyclohepta[f]indene-5-carboxylic acid isopropyl ester]",127
3,"Cc1cc2c(c(C)c1C(F)(F)F)N(CC1CC1)CCC[C@@H]2N(Cc1cc(Cl)cc(C(F)(F)F)c1)c1nnn(C)n1 [Example 200, (S)-(3-Chloro-5-trifluoromethyl-benzyl)-(1-cyclopropylmethyl-7,9-dimethyl-8-trifluoromethyl-2,3,4,5-tetrahydro-1H-benzo[b]azepin-5-yl)-(2-methyl-2H-tetrazol-5-yl)-amine]",153
4,"Cc1cc2c(cc1C(F)(F)F)N(C(=O)OC1CCCC1)CCC[C@@H]2N(Cc1cc(C(F)(F)F)cc(C(F)(F)F)c1)c1nnn(C)n1 [Example 20, (S)-5-[(3,5-Bis-trifluoromethyl-benzyl)-(2-methyl-2H-tetrazol-5-yl)-amino]-7-methyl-8-trifluoromethyl-2,3,4,5-tetrahydro-benzo[b]azepine-1-carboxylic acid cyclopentyl ester]",72
5,"Cc1cc2c(cc1C(F)(F)F)N(Cc1ccc(C#N)cc1)CCC[C@@H]2N(Cc1cc(C(F)(F)F)cc(C(F)(F)F)c1)c1nnn(C)n1 [Example 192, (S)-4-{5-[(3,5-bis-trifluoromethyl-benzyl)-(2-methyl-2H-tetrazol-5-yl)-amino]-7-methyl-8-trifluoromethyl-2,3,4,5-tetrahydro-benzo[b]azepin-1-ylmethyl}-benzonitrile]",102
6,"Cc1cc(N(Cc2cc(C(F)(F)F)cc(C(F)(F)F)c2)[C@H]2CCCN(C[C@H]3CC[C@H](CC(=O)O)CC3)c3cc(C(F)(F)F)c(C)cc32)on1 [Example 94, (4-{5-[(3,5-Bis-trifluoromethyl-benzyl)-(3-methyl-isoxazol-5-yl)-amino]-7-methyl-8-trifluoromethyl-2,3,4,5-tetrahydro-benzo[b]azepin-1-ylmethyl}-cyclohexyl)-acetic acid]",154
7,"Cc1cc2c(cc1C(F)(F)F)N(Cc1ccc(C(=O)O)cc1)CCC[C@@H]2N(Cc1cc(C(F)(F)F)cc(C(F)(F)F)c1)c1nnn(C)n1 [Example 89, (S)-4-{5-[(3,5-Bis-trifluoromethyl-benzyl)-(2-methyl-2H-tetrazol-5-yl)-amino]-7-methyl-8-trifluoromethyl-2,3,4,5-tetrahydro-benzo[b]azepin-1-ylmethyl}-benzoic acid]",186
8,"Cn1nnc(N(Cc2cc(C(F)(F)F)cc(C(F)(F)F)c2)[C@H]2CCCN(CC3CCCC3)c3cc4c(cc32)COC4)n1 [Example 73, (S)-(3,5-Bis-trifluoromethyl-benzyl)-(5-cyclopentylmethyl-3,5,6,7,8,9-hexahydro-1H-2-oxa-5-aza-cyclohepta[f]inden-9-yl)-(2-methyl-2H-tetrazol-5-yl)-amine]",374
9,"Cc1cc2c(cc1C(F)(F)F)N(Cc1ccncc1)CCC[C@@H]2N(Cc1cc(Cl)cc(Cl)c1)c1nnn(C)n1 [Example 187, (S)-(3,5-Dichloro-benzyl)-(7-methyl-1-pyridin-4-ylmethyl-8-trifluoromethyl-2,3,4,5-tetrahydro-1H-benzo[b]azepin-5-yl)-(2-methyl-2H-tetrazol-5-yl)-amine]",124
10,"Cc1cc2c(cc1C(F)(F)F)N(CC1CC1)CCC[C@@H]2N(Cc1cc(Cl)cc(C(F)(F)F)c1)c1nnn(C)n1 [Example 196, (S)-(3-Chloro-5-trifluoromethyl-benzyl)-(1-cyclopropylmethyl-7-methyl-8-trifluoromethyl-2,3,4,5-tetrahydro-1H-benzo[b]azepin-5-yl)-(2-methyl-2H-tetrazol-5-yl)-amine]",126
11,"CCC(OC(=O)N1CCCC(N(Cc2cc(C(F)(F)F)cc(C(F)(F)F)c2)c2nnn(C)n2)c2cc(C)c(C(F)(F)F)cc21)C(C)C (racemic) [Example 25, (+/−)-5-[(3,5-Bis-trifluoromethyl-benzyl)-(2-methyl-2H-tetrazol-5-yl)-amino]-7-methyl-8-trifluoromethyl-2,3,4,5-tetrahydro-benzo[b]azepine-1-carboxylic acid 1-ethyl-2-methyl-propyl ester]",142
12,"Cc1c2c(cc3c1N(C[C@H]1CC[C@H](CC(=O)O)CC1)CCC[C@@H]3N(Cc1cc(C(F)(F)F)cc(C(F)(F)F)c1)c1nnn(C)n1)COC2 [Example 165, (S)-(4-{9-[(3,5-Bis-trifluoromethyl-benzyl)-(2-methyl-2H-tetrazol-5-yl)-amino]-4-methyl-1,3,6,7,8,9-hexahydro-2-oxa-5-aza-cyclohepta[f]inden-5-ylmethyl}-cyclohexyl)-acetic acid]",177
13,"Cc1cc2c(cc1C(F)(F)F)N(CC1CCCC1)CCC[C@@H]2N(Cc1cc(C(F)(F)F)cc(C(F)(F)F)c1)c1nnn(C)n1 [Example 3, (S)-(3,5-bistrifluoromethylbenzyl)-(1-cyclopentylmethyl-7-methyl-8-trifluoromethyl-2,3,4,5-tetrahydro-1H-benzo[b]azepin-5-yl)-(2-methyl-2H-tetrazol-5-yl)amine]",71
14,"Cc1cc2c(cc1C(F)(F)F)N(C1CCC(C(=O)O)CC1)CCC[C@@H]2N(Cc1cc(C(F)(F)F)cc(C(F)(F)F)c1)c1nnn(C)n1 (stereo partly drawn) [Example 175, (S)-4-{5-[(3,5-Bis-trifluoromethyl-benzyl)-(2-methyl-2H-tetrazol-5-yl)-amino]-7-methyl-8-trifluoromethyl-2,3,4,5-tetrahydro-benzo[b]azepin-1-yl}-cyclohexanecarboxylic acid]",100
